Results published in PMC7404270, “Biological Activities of Cyclic and Acyclic B-Type Laxaphycins in SH-SY5Y Human Neuroblastoma Cells” (Marine Drugs, 2020).

How the values were obtained:
LC3 = experiment: Western blot, LC3II/I ratio; type: cell-based, human; settings: SH-SY5Y cells, 24 h; Baf A1 0.001 µM, Rap 0.1 µM
Procedure: (§1) SH-SY5Y cells were seeded in 12-well plates and treated with laxaphycins for 24 h. Next, cells were washed with PBS and lysis buffer (50mM Tris HCl, 150 mM NaCl, 1mM EDTA and 1% Triton x-100, supplemented with a complete phosphatase/protease inhibitor cocktail) was added to each well. Cells were scrapped, sonicated and centrifuged at 13,000 rpm at 4 °C for 20 min.
(§2) In both cases, the supernatant was collected as the cytosolic fraction and quantified with the Bradford method. Samples containing 15 µg were used for electrophoresis, resolved in 4–20% sodium dodecyl sulphate polyacrylamide gel (Biorad, Madrid, Spain). Proteins were transferred to PVDF membranes (Merck Millipore) with a Trans-Blot® semi-dry transfer cell (Biorad). Membrane blocking and antibody incubation was performed in Snap i.d. system (Merck Millipore). Protein bands were detected with Supersignal West Pico Luminiscent Substrate and Supersignal West Femto Maximum Sensitivity Substrate (Thermo Fisher Scientific). Chemiluminiscence was determined with Diversity GeneSnap system and software (Syngene). […]

AMPK = experiment: Western blot, AMPK activation (phosphorylated/total); type: cell-based, human; settings: SH-SY5Y cells, 24 h; Comp C 1 µM
Procedure: as §1, §2

beclin 1 = experiment: Western blot, beclin 1 expression; type: cell-based, human; settings: SH-SY5Y cells, 24 h; Rap 0.1 µM
Procedure: as §1
(§3) In both cases, the supernatant was collected as the cytosolic fraction and quantified with the Bradford method. Samples containing 15 µg were used for electrophoresis, resolved in 4–20% sodium dodecyl sulphate polyacrylamide gel (Biorad, Madrid, Spain). Proteins were transferred to PVDF membranes (Merck Millipore) with a Trans-Blot® semi-dry transfer cell (Biorad). Membrane blocking and antibody incubation was performed in Snap i.d. system (Merck Millipore). Protein bands were detected with Supersignal West Pico Luminiscent Substrate and Supersignal West Femto Maximum Sensitivity Substrate (Thermo Fisher Scientific). Chemiluminiscence was determined with Diversity GeneSnap system and software (Syngene). LC3 II/I was detected with the primary antibody anti-LC3 II/I (1:1000, Abcam), the primary antibody anti-pmTOR (Ser2448) (1:1000, Merck Millipore) was used to recognize phospho-mTOR and the total levels of the kinase were determined with anti-mTOR antibody (1:10000, Abcam), beclin-1 was detected with anti-beclin-1 primary antibody (1:1000, Merck Millipore), p62 was quantified with anti-p62 antibody (1:1000, Merck Millipore), anti-phospho-p70 S6 kinase (Thr389) (1:1000, Merck Millipore) was used to detect phospho- p70 and the total levels were quantified using anti-p70 S6 kinase antibody (1:1000, Merck Millipore), anti-phospho-AMPK (Thr172) (1:500, Merck Millipore) was used to recognize the phosphorylated state of the kinase, and the total expression of the enzyme was detected with anti-AMPK antibody (1:500, Merck Millipore). Protein levels were normalized using β-Actin (1:20,000, Millipore). Baf A1 (0.001 µM), Rap (0.1 µM) and Comp C (1 µM) were used as controls for autophagic flux measurements. All the experiments were performed at least three times in duplicate.

mTOR = experiment: Western blot, mTOR activation (phosphorylated/total); type: cell-based, human; settings: SH-SY5Y cells, 24 h; Rap 0.1 µM
Procedure: as §1
as §3, with “All the experiments were performed at least three times in duplicate.” left out

[1] = tested on: SH-SY5Y human neuroblastoma cells; experiment: Annexin V-FITC / propidium iodide flow cytometry; type: cell-based; settings: 24 h, 1 at 0.3 µM, 2 at 0.15 µM, STS at 0.01 µM, percentage of total cells, mean ± SEM of three experiments
Procedure: The Annexin V-FITC Apoptosis Detection Kit was used to determine the cell death produced by compounds as previously described. SH-SY5Y cells were seeded in 12-well plates at 1 × 10^6 per well and incubated for 24 h with laxaphycins. Then, cells were washed with PBS and resuspended in Annexin binding buffer containing Annexin V-FITC and PI. Cells were incubated for 15 min at room temperature, resuspended in PBS and filtered. The fluorescence was determined by flow cytometry using the ImageStreamMKII (Amnis Corporation, Luminex Corp, Austin, TX, USA). 10,000 events were analyzed with IDEAS Application 6.0 software (Amnis Corporation, Luminex Corp, Austin, TX, USA). STS (Sigma Aldrich) at 0.01 µM was used as control in this assay.

caspase 3 = experiment: Caspase 3 activity in cell lysates (EnzCheck kit); type: cell-based, human; settings: SH-SY5Y cells, 24 h; STS 0.01 µM; percentage of control cells, mean ± SEM
Procedure: The detection of caspase 3 activity was carried out with the EnzCheck® Caspase-3 Assay Kit. Neuroblastoma cells were cultured in 12-well plates at 1 × 10^6 cells per well and treated with compounds. After 24 h, cells were lysed and an aliquot was collected to quantify protein concentration by the Bradford method. Then, the assay was performed following manufacturer’s instructions. Briefly, 50 µL of each sample were mixed with equal volume of Z-DEVD-AMC substrate and incubated for 30 min at room temperature. Then, fluorescence at 342 nm excitation and 441 nm emission was measured. Caspase 3 activity data were corrected by protein concentration values. STS (0.01 µM) was used as positive control.

[2] = tested on: SH-SY5Y human neuroblastoma cells; experiment: LDH cytotoxicity assay (cell viability); type: cell-based; settings: 24 h, 0.001–10 µM
Procedure: (§4) SH-SY5Y human neuroblastoma cell line was obtained from American Type Culture Collection (ATCC), number CRL2266. Cells were cultured in Dulbecco´s modified Eagle´s medium: Nutrient Mix F-12 (DMEM/F-12) with 10% fetal bovine serum (FBS), 1% glutamax, 100 U/mL penicillin and 100 µg/mL streptomycin. Cells were maintained at 37 °C in a humidified atmosphere of 5% CO2 and 95% air and dissociated weekly using 0.05% trypsin/EDTA. All the reagents were obtained from Thermo Fischer Scientific.
Cell viability was assessed with the LDH test. Cells were seeded in 96-well plates and exposed to different compound concentrations (0.001–10 µM). Cells were incubated with compounds at 37 °C in humidified 5% CO2/95% air atmosphere for 24 h. Quillaja bark saponin was used as cellular death control. Then, cell medium was collected and LDH release was evaluated. Pierce^TM LDH-Cytotoxicity Assay Kit (Thermo Fisher Scientific) was used for LDH determination. Absorbance was measured at 490 nm to determine LDH release to the medium. Experiments were carried out in triplicate at least three independent times.

p70 S6 kinase = experiment: Western blot, p70 S6 kinase activation (phosphorylated/total); type: cell-based, human; settings: SH-SY5Y cells, 24 h; one range given for the three compounds together
Procedure: as §1
as §3, with “All the experiments were performed at least three times in duplicate.” left out

[3] = tested on: SH-SY5Y human neuroblastoma cells; experiment: ATP levels (Luminescent ATP Detection Kit); type: cell-based; settings: 0.001–10 µM; for ATP levels at 6 h, in words: 6 h incubation; for ATP levels at 24 h, in words: 24 h incubation
Procedure: ATP levels were determined with the Luminescent ATP Detection Kit (Abcam), following manufacturer´s instructions. Briefly, human neuroblastoma cells were cultured in 96-well plates at 5 × 10^4 cells per well. Cells were treated with compounds as described above during 6 and 24 h, Then, cells were lysed and 50 µL of substrate solution were added to each well. The plate was incubated for 5 min, and the luminescence was measured in a plate reader. Rot at 1 µM was used as positive control.

[4] = tested on: SH-SY5Y human neuroblastoma cells; experiment: Reactive oxygen species levels (carboxy-H2DCFDA); type: cell-based; settings: 24 h, 0.001–10 µM
Procedure: ROS production was assessed with the fluorescence dye carboxy-H2DCFDA (5-(and-6)-carboxy-2′,7′-dichlorodihydrofluorescein diacetate). SH-SY5Y cells were seeded in 96-well plates and allowed to grow for 24 h. Then, cells were treated with laxaphycins (0.001–10 µM) for 24 h and ROS levels were measured. SH-SY5Y cells were washed twice with serum-free medium and loaded with 20 µM carboxy-H2DCFDA. Next, the plate was incubated for 1 h at 37 °C. After this time, phosphate buffered saline (PBS) was added to each well during 30 min. The fluorescence was read at 495 nm excitation and 527 nm emission. Experiments were carried out at least three times.

[5] = tested on: SH-SY5Y human neuroblastoma cells; experiment: Mitochondrial membrane potential (TMRM dye); type: cell-based; settings: 24 h, 0.001–10 µM
Procedure: ∆Ψm was evaluated with TMRM assay as previously described. SH-SY5Y cells were seeded in 96-well plates at 5 × 10^4 cells per well. After 24 h, cells were treated with compounds (0.001–10 µM) for 24 h. Next, cells were washed twice with saline solution and incubated with 1 µM TMRM for 30 min. Then human neuroblastoma cells were solubilized with 50% DMSO–50% water. Fluorescence values were measured at 535 nm excitation, 590 nm emission with a plate reader. At least three independent replicates were performed in triplicate.

[6] = tested on: SH-SY5Y human neuroblastoma cells; experiment: MTT cell metabolic activity assay; type: cell-based; settings: 24 h, 0.001–10 µM
Procedure: as §4
The effect of laxaphycins on cell metabolic activity was evaluated by MTT (3-(4, 5-dimethyl thiazol-2-yl)-2, 5-diphenyl tetrazolium bromide) assay. SH-SY5Y cells were cultured in 96-well plates and treated with compounds at concentrations ranging from 0.001 to 10 µM for 24 h. Next, cells were rinsed three times and incubated for 1 h with MTT (500 µg/mL) dissolved in saline buffer. MTT excess was washed and cells were disaggregated with 5% sodium dodecyl sulfate. Absorbance of the colored formazan salt was measured at 595 nm in a spectrophotometer plate reader. Cell death control signal was subtracted from the other data.

CO/C1=C\C(C)=C\[C@@H](C)[C@@H](O)[C@@H](C)C/C(C)=C/C=C/[C@H](OC)[C@@H]([C@@H](C)[C@@H](O)[C@H](C)[C@@]2(O)C[C@@H](O)[C@H](C)[C@@H](C(C)C)O2)OC1=O [Baf A1, Bafilomycin A1]
LC3II/I ratio, in words (LC3): increased LC3II/I ratio

c1cc(-c2cnn3cc(-c4ccc(OCCN5CCCCC5)cc4)cnc23)ccn1 [Comp C, compound C, reference compound]
AMPK activation (phospho/total), in words (AMPK): inhibited kinase activity

CO[C@H]1C[C@@H]2CC[C@@H](C)[C@@](O)(O2)C(=O)C(=O)N2CCCC[C@H]2C(=O)O[C@H]([C@H](C)C[C@@H]2CC[C@@H](O)[C@H](OC)C2)CC(=O)[C@H](C)/C=C(\C)[C@@H](O)[C@@H](OC)C(=O)[C@H](C)C[C@H](C)/C=C/C=C/C=C/1C [Rap, rapamycin, reference compound]
Beclin 1 expression, in words (beclin 1): augmented its expression | mTOR activation (phospho/total), in words (mTOR): reduced mTOR activation | LC3II/I ratio, in words (LC3): increased LC3II/I ratio

CN[C@@H]1C[C@H]2O[C@@](C)([C@@H]1OC)n1c3ccccc3c3c4c(c5c6ccccc6n2c5c31)C(=O)NC4 [STS, staurosporine, reference compound]
Apoptotic cells (early and late, Annexin V positive) [1]: 63.3% ± 3.2% | Caspase 3 activity (caspase 3): 157.8% ± 6%

[des-(Ala^4-Hle^5)] acyclolaxaphycin B3 [compound 6]
Beclin 1 expression, in words (beclin 1): generated an increase in beclin1 expression | Cytotoxicity / cell viability (LDH test), in words [2]: did not show effects on cell survival | p70 S6 phosphorylation (p70 S6 kinase): 53.5%–78.6% | AMPK activation (phospho/total), in words (AMPK): the most active | ATP levels at 6 h, in words [3]: reduced ATP content at 6 h | ATP levels at 24 h, in words [3]: recovering it after 24 h | ROS levels (carboxy-H2DCFDA), in words [4]: decreased ROS release

[des-(Ala^4-Hle^5)] acyclolaxaphycin B [compound 5]
Beclin 1 expression, in words (beclin 1): generated an increase in beclin1 expression | Mitochondrial membrane potential (∆Ψm, TMRM), in words [5]: depolarized the mitochondria | Cell metabolic activity (MTT), in words [6]: increased cell metabolic activity | Cytotoxicity / cell viability (LDH test), in words [2]: did not show effects on cell survival | ATP levels at 6 h, in words [3]: levels were reduced by 5 after a 6 h incubation | ATP levels at 24 h, in words [3]: recovered at 24 h | ROS levels (carboxy-H2DCFDA), in words [4]: reduced ROS levels at the highest concentrations

acyclolaxaphycin B3 [compound 4]
Beclin 1 expression, in words (beclin 1): generated an increase in beclin1 expression | Mitochondrial membrane potential (∆Ψm, TMRM), in words [5]: depolarizing the mitochondrial membrane at 10 µM | Cytotoxicity / cell viability (LDH test), in words [2]: did not display cytotoxicity at any of the concentrations tested | p70 S6 phosphorylation (p70 S6 kinase): 53.5%–78.6% | ATP levels at 6 h, in words [3]: diminishing ROS release and ATP levels at 6 h | ROS levels (carboxy-H2DCFDA), in words [4]: diminishing ROS release

acyclolaxaphycin B [compound 3]
Beclin 1 expression, in words (beclin 1): generated an increase in beclin1 expression | Mitochondrial membrane potential (∆Ψm, TMRM), in words [5]: produced a decrease in ∆Ψm | Cell metabolic activity (MTT), in words [6]: significantly augmented cell metabolic activity at 0.1 and 1 µM | Cytotoxicity / cell viability (LDH test), in words [2]: did not display cytotoxicity at any of the concentrations tested | ATP levels at 6 h, in words [3]: reduction in ATP was observed at 6 h | ATP levels at 24 h, in words [3]: recovered at 24 h, reaching levels of control cells | ROS levels (carboxy-H2DCFDA), in words [4]: reduced ROS and ATP levels at the highest concentrations
